PubChem BioAssay (NCI)
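Interpolation was linear, between the two tested concentrations surrounding the appropriate level; five concentrations were tested over 48 hours in 96-well plates. Abbreviation: GI50, concentration required for 50% inhibition of growth. TGI: total growth inhibition.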

How the values were obtained:
Test in all cases: NCI anticancer screen, dose series, 48 h
[1] = system: NCI-H460 lung
[2] = system: KM12 colon
[3] = system: DU-145 prostate
[4] = system: MDA-MB-231 breast
[5] = system: HCT-15 colon
[6] = system: SK-OV-3 ovarian
[7] = system: 786-0 renal
[8] = system: NCI/ADR-RES ovarian
[9] = system: HOP-62 NSCLC
[10] = system: HL-60(TB) leukemia
[11] = system: SR leukemia
[12] = system: OVCAR-8 ovarian
[13] = system: SF-539 CNS
[14] = system: LOX IMVI melanoma
[15] = system: SF-295 CNS
[16] = system: K-562 leukemia
[17] = system: SN12C renal
[18] = system: PC-3 prostate
[19] = system: HCC-2998 colon
[20] = system: ACHN renal
[21] = system: SW-620 colon
[22] = system: A549 NSCLC
[23] = system: SK-MEL-2 melanoma
[24] = system: HS 578T breast
[25] = system: UO-31 renal
[26] = system: MALME-3M melanoma
[27] = system: MCF7 breast
[28] = system: U251 CNS
[29] = system: RPMI-8226 leukemia
[30] = system: T-47D breast
[31] = system: SNB-19 CNS
[32] = system: HCT-116 colon
[33] = system: IGROV1 ovarian
[34] = system: CAKI-1 renal
[35] = system: A498 renal
[36] = system: M14 melanoma
[37] = system: HT29 colon
[38] = system: HOP-92 NSCLC
[39] = system: UACC-257 melanoma
[40] = system: SK-MEL-5 melanoma
[41] = system: BT-549 breast
[42] = system: SNB-75 CNS
[43] = system: MDA-MB-435
[44] = system: SF-268 CNS
[45] = system: UACC-62 melanoma
[46] = system: OVCAR-4 ovarian
[47] = system: EKVX NSCLC
[48] = system: CCRF-CEM leukemia
[49] = system: NCI-H522 lung
[50] = system: TK-10 renal
[51] = system: SK-MEL-28 melanoma
[52] = system: COLO 205 colon
[53] = system: NCI-H23 lung
[54] = system: RXF 393 renal
[55] = system: OVCAR-3 ovarian
[56] = system: OVCAR-5 ovarian
[57] = system: MOLT-4 leukemia
[58] = system: NCI-H226 lung

Cc1oc2nc[nH]c(=O)c2c1C(=O)/C=C/c1ccc(Br)cc1
GI50 [1]: 3.25 µM
TGI [1]: 11 µM
GI50 [2]: 1.51 µM
TGI [2]: 3.44 µM
GI50 [3]: 2.03 µM
TGI [3]: 7.85 µM
GI50 [4]: 3.47 µM
TGI [4]: 17.8 µM
GI50 [5]: 1.09 µM
TGI [5]: 4.96 µM
GI50 [6]: 4.08 µM
TGI [6]: 15.5 µM
GI50 [7]: 1.8 µM
TGI [7]: 3.97 µM
GI50 [8]: 1.84 µM
TGI [8]: 20.8 µM
GI50 [9]: 2.62 µM
TGI [9]: 9.73 µM
GI50 [10]: 2.32 µM
TGI [10]: 10.3 µM
GI50 [11]: 1.35 µM
TGI [11]: 16.3 µM
GI50 [12]: 2.08 µM
TGI [12]: 88.3 µM
GI50 [13]: 1.73 µM
TGI [13]: 4.64 µM
GI50 [14]: 1.03 µM
TGI [14]: 2.43 µM
GI50 [15]: 4.22 µM
TGI [15]: 15 µM
GI50 [16]: 0.798 µM
TGI [16]: > 100 µM
GI50 [17]: 2.95 µM
TGI [17]: 11.9 µM
GI50 [18]: 2.36 µM
TGI [18]: 15.6 µM
GI50 [19]: 1.7 µM
TGI [19]: 3.26 µM
GI50 [20]: 1.6 µM
TGI [20]: 5.61 µM
GI50 [21]: 2.16 µM
TGI [21]: 7.09 µM
GI50 [22]: 2.73 µM
TGI [22]: 14.2 µM
GI50 [23]: 2.34 µM
TGI [23]: 7.1 µM
GI50 [24]: 3.49 µM
TGI [24]: 38.9 µM
GI50 [25]: 0.781 µM
TGI [25]: 7.39 µM
GI50 [26]: 1.89 µM
TGI [26]: 6 µM
GI50 [27]: 0.505 µM
TGI [27]: 11.5 µM
GI50 [28]: 1.44 µM
TGI [28]: 3.17 µM
GI50 [29]: 1.36 µM
TGI [29]: 6.91 µM
GI50 [30]: 1.86 µM
TGI [30]: 14.2 µM
GI50 [31]: 1.8 µM
TGI [31]: 5.44 µM
GI50 [32]: 1.26 µM
TGI [32]: 2.82 µM
GI50 [33]: 1.81 µM
TGI [33]: 10.2 µM
GI50 [34]: 1.34 µM
TGI [34]: 11.5 µM
GI50 [35]: 2.46 µM
TGI [35]: 6.82 µM
GI50 [36]: 2.14 µM
TGI [36]: 8.53 µM
GI50 [37]: 2.36 µM
TGI [37]: 6.3 µM
GI50 [38]: 1.35 µM
TGI [38]: 6.86 µM
GI50 [39]: 2.37 µM
TGI [39]: 11.3 µM
GI50 [40]: 1.56 µM
TGI [40]: 3.27 µM
GI50 [41]: 1.74 µM
TGI [41]: 4.13 µM
GI50 [42]: 1.23 µM
TGI [42]: 9.62 µM
GI50 [43]: 2 µM
TGI [43]: 6.69 µM
GI50 [44]: 3.08 µM
TGI [44]: 17.5 µM
GI50 [45]: 1.33 µM
TGI [45]: 3.03 µM
GI50 [46]: 2.51 µM
TGI [46]: 13.1 µM
GI50 [47]: 2.37 µM
TGI [47]: 12.8 µM
GI50 [48]: 1.01 µM
TGI [48]: 30.6 µM
GI50 [49]: 1.89 µM
TGI [49]: 5.76 µM
GI50 [50]: 4.46 µM
TGI [50]: 13.3 µM
GI50 [51]: 2.39 µM
TGI [51]: 8.3 µM
GI50 [52]: 1.7 µM
TGI [52]: 5.5 µM
GI50 [53]: 2.07 µM
TGI [53]: 7.82 µM
GI50 [54]: 1.41 µM
TGI [54]: 3.22 µM
GI50 [55]: 1.85 µM
TGI [55]: 5.74 µM
GI50 [56]: 2.93 µM
TGI [56]: 9.32 µM
GI50 [57]: 2.84 µM
TGI [57]: 17.9 µM

COC(=O)CCC(C)[C@H]1CCC2C3C(C[C@H](OC(C)=O)[C@@]21C)[C@@]1(C)CCC2(C[C@H]1C[C@H]3OC(C)=O)OOC1(CCC(C(C)(C)C)CC1)OO2 (stereo partly drawn)
TGI [1]: > 100 µM
TGI [2]: > 100 µM
TGI [3]: > 100 µM
TGI [4]: > 100 µM
TGI [5]: > 100 µM
TGI [6]: > 100 µM
TGI [7]: > 100 µM
TGI [8]: > 100 µM
TGI [9]: 29 µM
TGI [10]: > 100 µM
TGI [11]: > 100 µM
TGI [12]: > 100 µM
TGI [13]: > 100 µM
TGI [14]: > 100 µM
TGI [15]: > 100 µM
TGI [16]: > 100 µM
TGI [17]: > 100 µM
TGI [18]: > 100 µM
TGI [19]: > 100 µM
TGI [58]: > 100 µM
TGI [20]: > 100 µM
TGI [21]: > 100 µM
TGI [22]: > 100 µM
TGI [23]: > 100 µM
TGI [24]: > 100 µM
TGI [25]: 29 µM
TGI [26]: > 100 µM
TGI [27]: > 100 µM
TGI [28]: > 100 µM
TGI [29]: 45.2 µM
TGI [30]: > 100 µM
TGI [31]: > 100 µM
TGI [32]: > 100 µM
TGI [33]: 48.8 µM
TGI [34]: > 100 µM
TGI [35]: > 100 µM
TGI [36]: > 100 µM
TGI [37]: > 100 µM
TGI [38]: > 100 µM
TGI [39]: > 100 µM
TGI [40]: > 100 µM
TGI [41]: > 100 µM
TGI [42]: > 100 µM
TGI [43]: > 100 µM
TGI [44]: > 100 µM
TGI [46]: > 100 µM
TGI [47]: 30 µM
TGI [48]: > 100 µM
TGI [49]: > 100 µM
TGI [50]: > 100 µM
TGI [51]: > 100 µM
TGI [52]: > 100 µM
TGI [53]: > 100 µM
TGI [54]: > 100 µM
TGI [55]: > 100 µM
TGI [56]: > 100 µM
TGI [57]: > 100 µM

CCOC(=O)C#Cc1c(C(=O)OCC)nnn1Cc1ccc(C(F)(F)F)cc1
GI50 [1]: 11.5 µM
TGI [1]: 27.1 µM
GI50 [2]: 11.8 µM
TGI [2]: 25.5 µM
GI50 [3]: 3.9 µM
TGI [3]: 15.1 µM
GI50 [4]: 4.05 µM
TGI [4]: 14 µM
GI50 [5]: 1.95 µM
TGI [5]: 4.46 µM
GI50 [6]: 19.4 µM
TGI [6]: 38.6 µM
GI50 [7]: 2.58 µM
TGI [7]: 6.29 µM
GI50 [8]: 7.49 µM
TGI [8]: 40.7 µM
GI50 [9]: 17 µM
TGI [9]: 32 µM
GI50 [10]: 1.3 µM
TGI [10]: 3.85 µM
GI50 [11]: 1.06 µM
TGI [11]: 4.48 µM
GI50 [12]: 4.37 µM
TGI [12]: 15 µM
GI50 [14]: 0.692 µM
TGI [14]: 2.09 µM
GI50 [15]: 17.5 µM
TGI [15]: 32.9 µM
GI50 [16]: 1.77 µM
TGI [16]: 8.3 µM
GI50 [17]: 2.42 µM
TGI [17]: 6.08 µM
GI50 [18]: 9.38 µM
TGI [18]: 22 µM
GI50 [19]: 18.1 µM
TGI [19]: 32.7 µM
GI50 [58]: 1.72 µM
TGI [58]: 3.63 µM
GI50 [20]: 1.92 µM
TGI [20]: 3.56 µM
GI50 [21]: 2.08 µM
TGI [21]: 4.36 µM
GI50 [22]: 20.6 µM
TGI [22]: 39.2 µM
GI50 [23]: 15.1 µM
TGI [23]: 28.7 µM
GI50 [24]: 22.5 µM
TGI [24]: 59.5 µM
GI50 [25]: 1.8 µM
TGI [25]: 3.47 µM
GI50 [26]: 2.08 µM
TGI [26]: 4.9 µM
GI50 [27]: 2.52 µM
TGI [27]: 10.1 µM
GI50 [28]: 10.9 µM
TGI [28]: 22.8 µM
GI50 [29]: 2.53 µM
TGI [29]: 7.21 µM
GI50 [30]: 2.08 µM
TGI [30]: 5.66 µM
GI50 [31]: 19.4 µM
TGI [31]: 44.8 µM
GI50 [32]: 1.8 µM
TGI [32]: 3.5 µM
GI50 [33]: 14.2 µM
TGI [33]: 30.8 µM
GI50 [34]: 2.09 µM
TGI [34]: 4.58 µM
GI50 [35]: 16.9 µM
TGI [35]: 30.6 µM
GI50 [36]: 2.46 µM
TGI [36]: 5.82 µM
GI50 [38]: 2.53 µM
TGI [38]: 5.7 µM
GI50 [39]: 3.69 µM
TGI [39]: 11 µM
GI50 [40]: 9.92 µM
TGI [40]: 21.5 µM
GI50 [41]: 2.93 µM
TGI [41]: 8.65 µM
GI50 [42]: 9.31 µM
TGI [42]: 21.4 µM
GI50 [43]: 3.72 µM
TGI [43]: 14.5 µM
GI50 [44]: 8.12 µM
TGI [44]: 25.7 µM
GI50 [45]: 1.93 µM
TGI [45]: 4.36 µM
GI50 [46]: 3.22 µM
TGI [46]: 11.7 µM
GI50 [47]: 16.6 µM
TGI [47]: 31.2 µM
GI50 [48]: 1.07 µM
TGI [48]: 4.92 µM
GI50 [49]: 2.4 µM
TGI [49]: 4.47 µM
GI50 [50]: 2.08 µM
TGI [50]: 4.55 µM
GI50 [51]: 2.47 µM
TGI [51]: 5.91 µM
GI50 [52]: 2.32 µM
TGI [52]: 5.29 µM
GI50 [53]: 11.5 µM
TGI [53]: 27.6 µM
GI50 [54]: 1.68 µM
TGI [54]: 3.24 µM
GI50 [55]: 1.73 µM
TGI [55]: 3.32 µM
GI50 [56]: 9.75 µM
TGI [56]: 22 µM
GI50 [57]: 1.73 µM
TGI [57]: 6.85 µM
